Measured values published in US20160220524A1, “COMPOSITIONS OF SMALL MOLECULE THERAPEUTICS” (NEXMED HOLDINGS, INC., priority 2015, published 2016).
Counter-ions that a name gives are not always drawn.

Experiments:
[1] = Protocol: The compounds from BCS Class 2, 3 and 4 were each formulated at 5 mg/ml in a liquid carrier of either an aqueous solution of polyethylene glycol 400 (20% PEG 400), or an aqueous solution of DDAIP-HCL (20%). […] Cohorts of three animals per group were placed in the study. On day 1, animals from each group were dosed at 30 mg/kg (6 ml/kg) by oral gavage (PO). Animals were fed at the time of dosing. Serial blood samples were collected at pre-dose, and after post-dose intervals of 30 minutes, 1 hour, 2 hours and 4 hours. The blood samples were collected into lithium heparin-coated tubes. At each time point, 0.15 ml of blood was collected via left jugular vein cannulae and processed for collection of plasma by centrifuging at approximately 2,000 rpm for approximately 10 minutes. The cellular fraction of the blood was discarded. Collection times and volume of plasma samples were recorded and tabulated. Plasma samples were transferred into clean tubes and snap frozen onto dry ice. Samples were stored at −80° C. until ready for bio-analysis by LC/MS/MS. The drug concentration was measured from supernatant after centrifugation of the dosing solution
[2] = water; cited from earlier work
P-glycoprotein (P-gp) = P-glycoprotein (P-gp) (Homo sapiens, UniProt P08183); assay: Inhibition of P-glycoprotein; assay type: in vitro ADME; settings: up to 10 mM
Chain of P-glycoprotein (P-gp) (P08183 whole entry): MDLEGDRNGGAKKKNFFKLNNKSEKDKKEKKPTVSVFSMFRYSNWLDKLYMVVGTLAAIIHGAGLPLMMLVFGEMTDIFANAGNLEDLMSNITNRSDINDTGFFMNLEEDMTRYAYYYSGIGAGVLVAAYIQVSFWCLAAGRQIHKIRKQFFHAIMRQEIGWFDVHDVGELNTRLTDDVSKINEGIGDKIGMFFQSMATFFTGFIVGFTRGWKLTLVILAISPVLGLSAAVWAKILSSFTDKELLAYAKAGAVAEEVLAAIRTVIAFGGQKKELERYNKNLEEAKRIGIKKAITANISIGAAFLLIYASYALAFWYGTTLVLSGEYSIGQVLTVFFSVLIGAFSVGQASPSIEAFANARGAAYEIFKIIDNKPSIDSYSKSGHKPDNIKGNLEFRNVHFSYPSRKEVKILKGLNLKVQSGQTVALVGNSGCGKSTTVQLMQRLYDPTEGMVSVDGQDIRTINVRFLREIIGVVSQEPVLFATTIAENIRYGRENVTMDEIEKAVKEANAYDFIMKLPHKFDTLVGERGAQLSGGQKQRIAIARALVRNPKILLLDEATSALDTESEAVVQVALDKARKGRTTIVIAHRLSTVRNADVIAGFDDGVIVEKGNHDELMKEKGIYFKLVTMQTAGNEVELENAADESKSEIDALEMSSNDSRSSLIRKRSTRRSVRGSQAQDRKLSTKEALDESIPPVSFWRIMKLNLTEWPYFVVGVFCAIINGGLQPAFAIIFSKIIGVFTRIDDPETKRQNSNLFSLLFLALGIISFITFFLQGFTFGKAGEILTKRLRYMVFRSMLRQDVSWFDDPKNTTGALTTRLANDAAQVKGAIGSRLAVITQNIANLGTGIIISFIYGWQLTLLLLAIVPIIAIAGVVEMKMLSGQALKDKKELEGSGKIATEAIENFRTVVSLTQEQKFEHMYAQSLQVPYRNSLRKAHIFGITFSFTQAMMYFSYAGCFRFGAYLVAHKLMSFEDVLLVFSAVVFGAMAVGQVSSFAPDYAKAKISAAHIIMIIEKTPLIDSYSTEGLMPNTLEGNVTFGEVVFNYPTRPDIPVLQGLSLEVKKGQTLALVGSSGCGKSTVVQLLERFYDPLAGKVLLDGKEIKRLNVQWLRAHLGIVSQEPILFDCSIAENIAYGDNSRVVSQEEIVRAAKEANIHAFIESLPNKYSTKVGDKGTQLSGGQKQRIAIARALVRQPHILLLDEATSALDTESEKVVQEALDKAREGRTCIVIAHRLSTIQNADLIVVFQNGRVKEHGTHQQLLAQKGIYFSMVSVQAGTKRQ

SMILES	Sol. over PEG (solubility improvement fold over PEG 400) [1]	inhibition of P-glycoprotein (P-gp) (P-glycoprotein (P-gp))	form of the 5 mg/ml formulation (suspension or solution) [1]	Sol. H2O (reported solubility from the literature) [2]
NS(=O)(=O)c1cc2c(cc1Cl)N=CNS2(=O)=O [Chlorothiazide, chlorothiazide]	>363 fold	–	–	0.300 mg/mL
CCCCCCCCCCCCOC(=O)C(C)N(C)C (stereo not drawn) [DDAIP-HCL, dodecyl 2-(N,N-dimethylamino) propionate]	–	no inhibition	–	–
N[C@H]1C(O)O[C@H](CO)[C@@H](O)[C@@H]1O (stereo partly drawn) [Glucosamine, glucosamine]	–	–	–	551.000 mg/mL

Further lines, with some results ahead:

Sol. over PEG (solubility improvement fold over PEG 400) [1]	inhibition of P-glycoprotein (P-gp) (P-glycoprotein (P-gp))	form of the 5 mg/ml formulation (suspension or solution) [1]	SMILES	Sol. H2O (reported solubility from the literature) [2]
–	–	suspensions	O=C(CCCN1CCC(O)(c2ccc(Cl)cc2)CC1)c1ccc(F)cc1 [Haloperidol, haloperidol]	0.001 mg/mL
>446 fold	–	suspensions	O=C(O)c1cc(/N=N/c2ccc(S(=O)(=O)Nc3ccccn3)cc2)ccc1O [Sulfasalazine, sulfasalazine]	0.010 mg/mL
